Experimental data as given in patent publication US20210393651A1, “TARGETING THE ONCOGENIC TRANSCRIPTION FACTOR STAT5 WITH MINERALOCORTICOID ANALOGUES” (DANA-FARBER CANCER INSTITUTE, INC., priority 2018, published 2021).

Tests used:
STAT5 [1] = test: Immunoblot of STAT5 phosphorylation and nuclear localization in T47D cells after prolactin; assay type: cell-based; conditions: for phosphorylation and nuclear localization of STAT5: 1 hour pre-treatment, 15 minutes after prolactin, cellular fractionation (FIG. 3B)
Description: (§1) FIG. 3A-FIG. 3C is a series of photographs of blots and bar charts showing that fludrocortisone inhibits STAT5 transcriptional function without affecting its phosphorylation or genome binding. FIG. 3A is a photograph of a blot wherein T47D cells were pretreated with vehicle control or fludrocortisone for 1 hour after which prolactin was added. Cells were harvested at the indicated time point and immunoblotting was performed. FIG. 3B is a photograph of a blot wherein T47D cells were pretreated with vehicle, fludrocortisone, or Jak inhibitor 1 for 1 hour after which prolactin was added. Cells were collected 15 minutes after prolactin stimulation and cellular fractionation and immunoblotting was performed. FIG. 3C is a photograph of a blot wherein T47D cells were pretreated with vehicle (DMSO) or fludrocortisone for 1 hour, then left untreated or stimulated with prolactin. 30 minutes later, cells were harvested and ChIP was performed to analyze STAT5 and pol II binding to the CISH promoter region. Error bars represent mean±SD for two independent experiments.
Nuclear and cytoplasmic fractionation was performed using the Nuclear Extract Kit (Active Motif, Carlsbad, Calif.). Immunoblots were performed using antibodies recognizing STAT5 (sc-482), MCR (sc-11412) and RNA polymerase II (pol II) (sc-9001) (all from Santa Cruz Biotechnology, Santa Cruz Calif.) and tyrosine-phosphorylated STAT5 (9131L) (from Cell Signaling Technology, Danvers, Mass.).
Next, it was considered whether fludrocortisone was inhibiting STAT5 function by blocking a key step in its activation. To address this, the effect of fludrocortisone on the kinetics of STAT5 phosphorylation following prolactin stimulation was evaluated. […] It was then evaluated whether nuclear translocation of activated STAT5 was affected by fludrocortisone treatment. T47D cells were either untreated or pretreated with fludrocortisone or JAK inhibitor 1, then left unstimulated or treated with prolactin, after which nuclear and cytoplasmic fractions were separated and analyzed for phosphorylated STAT5. […]

NF-κB = test: NF-κB-dependent luciferase reporter (NF-κB-luc/293 cells); assay type: cell-based; conditions: concentrations up to 33 μM
Description: (§2) FIG. 1A is a bar chart wherein reporter cell lines were treated with the indicated doses of fludrocortisone for two hours, after which cytokines were added to activate the appropriate transcription factor. Luciferase activity was quantified by luminometry six hours later. FIG. 1B is a bar chart wherein T47D cells were transfected with one of two luciferase constructs regulated by a STAT5-dependent promoter (NCAM-luc or B-luc) together with a normalizing control, and the effect of fludrocortisone on prolactin-induced gene expression was determined. Jak inhibitor 1 (JAKinhib; 1 μM) was used as a positive control. Error bars represent mean±SD for two independent experiments. […] RNA was harvested 1.5 hours later, and expression of the indicated STAT5 target genes was measured using quantitative reverse transcription polymerase chain reaction (RT-PCR) and normalized to the expression of 18s. […]
(§3) T47D, ZR75 (American Type Culture Collection, Manassas Va.), and MDA-MB-468, were maintained in DMEM containing 10% FBS. […] STAT1, STAT3, STAT5 and NF-κB-dependent luciferase activities were measured in STAT-luc/2FTGH, STAT-luc/U3A, NCAM2-luc/T47D and NF-κB-luc/293 cells, respectively (Nelson et al., 2008 Blood 112, 5095-5102). Luciferase activity was quantified using the Bright-Glo Luciferase assay system (Promega, Madison, Wis.).

STAT5 [2] = test: STAT5-dependent luciferase reporter in T47D cells (NCAM2-luc/T47D), prolactin-stimulated; assay type: cell-based
Description: (§4) FIG. 1A is a bar chart wherein reporter cell lines were treated with the indicated doses of fludrocortisone for two hours, after which cytokines were added to activate the appropriate transcription factor. Luciferase activity was quantified by luminometry six hours later. FIG. 1B is a bar chart wherein T47D cells were transfected with one of two luciferase constructs regulated by a STAT5-dependent promoter (NCAM-luc or B-luc) together with a normalizing control, and the effect of fludrocortisone on prolactin-induced gene expression was determined. Jak inhibitor 1 (JAKinhib; 1 μM) was used as a positive control. Error bars represent mean±SD for two independent experiments. FIG. 1C is a series of bar charts wherein the indicated breast cancer cell lines were pre-treated with vehicle (dimethylsulfoxide (DMSO)) or fludrocortisone (1 μM) for 1 hour, then left untreated or stimulated with prolactin (100 ng/ml) to induce STAT5 activation. RNA was harvested 1.5 hours later, and expression of the indicated STAT5 target genes was measured using quantitative reverse transcription polymerase chain reaction (RT-PCR) and normalized to the expression of 18s. Error bars represent mean±SD for triplicates.
FIG. 2A-FIG. 2E is a series of bar graphs showing that the endogenous mineralocorticoid aldosterone inhibits STAT5 transcriptional function. FIG. 2A is a bar chart wherein T47D cells were transfected with an MCR-dependent luciferase reporter and a normalizing control, and normalized luciferase activity was determined after the indicated treatment. FIG. 2B is a bar chart wherein T47D cells transfected with an MCR-dependent luciferase reporter and a normalizing control were treated with the indicated dose of aldosterone, after which luciferase activity was determined. FIG. 2C is a bar chart wherein T47D-luc cells were pre-treated with the indicated concentration of aldosterone for 1 hour, then stimulated with prolactin (100 ng/ml) for 6 hours, after which luciferase activity was determined. […] RNA was harvested 1.5 hours later, and expression of STAT5 target genes was measured using quantitative RT-PCR and normalized to the expression of 18s RNA. […] Luciferase activity was quantified by luminometry six hours following prolactin stimulation. […]
T47D, ZR75 (American Type Culture Collection, Manassas Va.), and MDA-MB-468, were maintained in DMEM containing 10% FBS. […] STAT1, STAT3, STAT5 and NF-κB-dependent luciferase activities were measured in STAT-luc/2FTGH, STAT-luc/U3A, NCAM2-luc/T47D and NF-κB-luc/293 cells, respectively (Nelson et al., 2008 Blood 112, 5095-5102). Luciferase activity was quantified using the Bright-Glo Luciferase assay system (Promega, Madison, Wis.). […]

STAT5 [3] = test: STAT5 activity in hematopoietic cells; assay type: cell-based
STAT3 = test: STAT3-dependent luciferase reporter (STAT-luc/U3A cells); assay type: cell-based; conditions: concentrations up to 33 μM
Description: as §2, §3

MCR = test: MCR-dependent luciferase reporter in T47D cells; assay type: cell-based; conditions: for activation of MCR, MCR-specific luciferase reporter: T47D cells (FIG. 2A)
Description: FIG. 2A-FIG. 2E is a series of bar graphs showing that the endogenous mineralocorticoid aldosterone inhibits STAT5 transcriptional function. FIG. 2A is a bar chart wherein T47D cells were transfected with an MCR-dependent luciferase reporter and a normalizing control, and normalized luciferase activity was determined after the indicated treatment. FIG. 2B is a bar chart wherein T47D cells transfected with an MCR-dependent luciferase reporter and a normalizing control were treated with the indicated dose of aldosterone, after which luciferase activity was determined. FIG. 2C is a bar chart wherein T47D-luc cells were pre-treated with the indicated concentration of aldosterone for 1 hour, then stimulated with prolactin (100 ng/ml) for 6 hours, after which luciferase activity was determined. FIG. 2D is a bar chart wherein T47D cells were pre-treated with vehicle control or aldosterone (0.01 μM) for 1 hour, after which prolactin (100 ng/ml) was added to induce STAT5 activation. RNA was harvested 1.5 hours later, and expression of STAT5 target genes was measured using quantitative RT-PCR and normalized to the expression of 18s RNA. FIG. 2E is a bar chart wherein T47D cells stably expressing a STAT5-dependent luciferase reporter gene were treated with 1 μM fludrocortisone at the indicated time points relative to prolactin stimulation. Luciferase activity was quantified by luminometry six hours following prolactin stimulation. Error bars represent mean±SD for triplicates.

STAT5 [4] = test: Dual luciferase assay, parental T47D cells transfected with NCAM-luc or B-luc; assay type: cell-based; conditions: prolactin-induced
Description: as §4, with “triplicates. […]” for “triplicates.”

[5] = test system: STAT5 and RNA polymerase II binding to CISH promoter; test: ChIP of STAT5 and pol II binding to the CISH promoter region in T47D cells; assay type: cell-based; conditions: 1 hour pre-treatment, 30 minutes after prolactin (FIG. 3C)
Description: as §1, with “FIG. 3C is a photograph of a blot wherein T47D cells were pretreated with vehicle (DMSO) or fludrocortisone for 1 hour, then left untreated or stimulated with prolactin. 30 minutes later, cells were harvested and ChIP was performed to analyze STAT5 and pol II binding to the CISH promoter region. Error bars represent mean±SD for two independent experiments.” left out
ChIP was performed as described (Nelson et al., 2004 J Biol Chem 279, 54724-54730). […] Quantitative PCR was performed in triplicate on ChIP product or input using SYBR Green PCR Master Mix (Applied Biosystems, Foster City, Calif.) and region-specific primers as follows: CISH, forward, 5′-CCCGCGGTTCTAGGAAGAC-3′ (SEQ ID NO: 1), reverse, 5′-CGAGCTGCTGCCTAATCCT-3′ (SEQ ID NO: 2); Rhodopsin, forward, 5′-[…]-3′ (SEQ ID NO: 3), reverse, 5′-[…]-3′ (SEQ ID NO: 4). Relative binding at the CISH promoter site was normalized to input and expressed as mean fold change relative to binding at the Rhodopsin site, which is a control DNA binding site known not to bind STAT5. […]

STAT1 = test: STAT1-dependent luciferase reporter (STAT-luc/2FTGH cells); assay type: cell-based; conditions: concentrations up to 33 μM
Description: as §2, §3

[6] = test system: STAT5 target genes AREG and CISH; test: Expression of endogenous STAT5 target genes in breast cancer cell lines by quantitative RT-PCR; assay type: cell-based; conditions: 1 hour pre-treatment; for expression of endogenous STAT5 target genes AREG and CISH: 1 μM, prolactin 100 ng/ml
Description: as §4
FIG. 2A-FIG. 2E is a series of bar graphs showing that the endogenous mineralocorticoid aldosterone inhibits STAT5 transcriptional function. FIG. 2A is a bar chart wherein T47D cells were transfected with an MCR-dependent luciferase reporter and a normalizing control, and normalized luciferase activity was determined after the indicated treatment. FIG. 2B is a bar chart wherein T47D cells transfected with an MCR-dependent luciferase reporter and a normalizing control were treated with the indicated dose of aldosterone, after which luciferase activity was determined. FIG. 2C is a bar chart wherein T47D-luc cells were pre-treated with the indicated concentration of aldosterone for 1 hour, then stimulated with prolactin (100 ng/ml) for 6 hours, after which luciferase activity was determined. […] Luciferase activity was quantified by luminometry six hours following prolactin stimulation. […]

STAT5 [7] = test: STAT5 function (test not described)
[8] = T47D reporter cells, 1 μM (FIG. 2E)

CC(C)(C)c1nc2c3cc[nH]c(=O)c3c3cc(F)ccc3c2[nH]1 [JAK inhibitor 1]
phosphorylation and nuclear localization of STAT5 (STAT5 [1]): complete inhibition

C[C@]12CCC(=O)C=C1CC[C@H]1[C@@H]3CC[C@](O)(C(=O)CO)[C@@]3(C)C[C@H](O)[C@@]12F [fludrocortisone, 9α-fluoro-11β,17α,21-trihydroxypregn-4-ene-3,20-dione]
effect on NF-κB-dependent luciferase expression (NF-κB): essentially no effect | dynamics of STAT5 activation (phosphorylation kinetics) following prolactin (STAT5 [1]; 1 hour pre-treatment (FIG. 3A)): no difference | phosphorylation and nuclear localization of STAT5 (STAT5 [1]): no effect | IC50 (STAT5 [2]; Homo sapiens, T47D cells stably expressing STAT5-dependent luciferase reporter, prolactin 100 ng/ml, read-out: IC50, inhibition of STAT5-dependent luciferase activity): ~100 nM | prolactin-stimulated STAT5 luciferase activity, compound added after prolactin (STAT5 [2]; [8]): some inhibitory effect | prolactin-stimulated STAT5 luciferase activity, compound added simultaneously with prolactin (STAT5 [2]; [8]): still effectively inhibit | induced or constitutive STAT5 activity (STAT5 [3]): does not appear to inhibit | effect on STAT3-dependent luciferase expression (STAT3): essentially no effect | activation of MCR, MCR-specific luciferase reporter (MCR): activate MCR | STAT5-dependent luciferase activity, B-luc (BCL6) promoter (STAT5 [4]): reduced STAT5-dependent luciferase activity | STAT5-dependent luciferase activity, NCAM-luc promoter (STAT5 [4]): reduced STAT5-dependent luciferase activity | STAT5 binding to CISH regulatory site (ChIP) [5]: no effect | prolactin-induced recruitment of RNA polymerase II (pol II) to CISH promoter site (ChIP) [5]: did inhibit | effect on STAT1-dependent luciferase expression (STAT1): essentially no effect | expression of endogenous STAT5 target genes AREG and CISH ([6]; T47D cells): effectively inhibits | expression of endogenous STAT5 target genes AREG and CISH ([6]; ZR75 cells): effectively inhibits

C[C@]12CCC(=O)C=C1CC[C@@H]1[C@@H]2[C@@H](O)C[C@]2(C=O)[C@@H](C(=O)CO)CC[C@@H]12 [aldosterone]
inhibition of STAT5-dependent reporter gene, dose response (STAT5 [2]; T47D-luc cells, 1 hour pre-treatment, prolactin 100 ng/ml for 6 hours (FIG. 2C)): dose-dependent inhibition | activation of MCR, MCR-specific luciferase reporter (MCR): activate MCR | dose dependence of MCR activation, MCR-dependent luciferase reporter (MCR; T47D cells, indicated doses (FIG. 2B)): activates MCR in a dose-dependent manner | expression of endogenous STAT5 target genes ([6]; T47D cells, 0.01 μM, prolactin 100 ng/ml (FIG. 2D)): inhibited

CC(=O)S[C@@H]1CC2=CC(=O)CC[C@]2(C)[C@H]2CC[C@@]3(C)[C@@H](CC[C@@]34CCC(=O)O4)[C@H]12 [spironolactone]
STAT5 function (STAT5 [7]): inhibit STAT5 function
